Data: patent US20090275648A1, “MACROCYCLIC GHRELIN RECEPTOR ANTAGONISTS AND INVERSE AGONISTS AND METHODS OF USING THE SAME” (priority 2005, published 2009)

Columns and labels:
ghrelin receptor [1] = target: T1, ghrelin receptor (Homo sapiens, UniProt Q92847); experiment: Aequorin functional assay (ghrelin receptor), Example 3; format: cell-based; design: host or cells: CHO-K1 cells co-expressing Gα16 and mitochondrially targeted Aequorin; settings: for IC50: antagonist testing vs ghrelin at EC80 (3.7 nM)
From the text: The functional activity of compounds of the invention found to bind to the GHS-R1a receptor can be determined using the method described below. (LePoul, E.; et al. Adaptation of aequorin functional assay to high throughput screening. J. Biomol. Screen. 2002, 7, 57-65; Bednarek, M. A.; et al. Structure-function studies on the new growth hormone-releasing peptide ghrelin: minimal sequence of ghrelin necessary for activation of growth hormone secretagogue receptor 1a. J. Med. Chem. 2000, 43, 4370-4376; Palucki, B. L.; et al. Spiro(indoline-3,4′-piperidine) growth hormone secretagogues as ghrelin mimetics. Bioorg. Med. Chem. Lett. 2001, 11, 1955-1957).
Membranes were prepared using AequoScreen™ (EUROSCREEN, Belgium) cell lines expressing the human ghrelin receptor (cell line ES-410-A; receptor accession #60179). This cell line is constructed by transfection of the human ghrelin receptor into CHO-K1 cells co-expressing Gα16 and the mitochondrially targeted Aequorin (Ref #ES-WT-A5). • 1. Ghrelin (reference agonist; Bachem, #H-4864) • 2. Assay buffer: DMEM (Dulbecco's Modified Eagles Medium) containing 0.1% BSA (bovine serum albumin; pH 7.0. • 3. Coelenterazine (Molecular Probes, Leiden, The Netherlands)
Stock solutions of compounds (10 mM in 100% DMSO) were provided frozen on dry ice and stored at −20° C. prior to use. From the stock solution, mother solutions were made at a concentration of 500 μM 20-fold dilution in 26% DMSO. Assay plates were then prepared by appropriate dilution in DMEM medium containing 0.1% BSA. Under these conditions, the maximal final DMSO concentration in the assay was <0.6%.
AequoScreen™ cells were collected from culture plates with Ca^2+ and Mg^2+-free phosphate buffered saline (PBS) supplemented with 5 mM EDTA, pelleted for 2 minutes at 1000×g, re-suspended in DMEM-Ham's F12 containing 0.1% BSA at a density of 5×10^6 cells/ml and incubated overnight at room temperature in the presence of 5 μM coelenterazine. After loading, cells were diluted with assay buffer to a concentration of 5×10^5 cells/ml.
For agonist testing, 50 μl of the cell suspension was mixed with 50 μl of the appropriate concentration of test compound or ghrelin (reference agonist) in 96-well plates (duplicate samples). Ghrelin (reference agonist) is tested at several concentrations concurrently with the test compounds in order to validate the experiment. The emission of light resulting from receptor activation in response to ghrelin or test compounds was recorded using the Hamamatsu FDSS 6000 reader (Hamamatsu Photonics K.K., Japan).
For antagonist testing, an approximate EC80 concentration of ghrelin (i.e. 3.7 nM; 100 μL) was injected onto the cell suspension containing the test compounds (duplicate samples) 15-30 minutes after the end of agonist testing and the consequent emission of light resulting from receptor activation was measured as described in the paragraph above.
Results are expressed as Relative Light Units (RLU). […] For agonist testing, results for each concentration of test compound were expressed as percent activation relative to the signal induced by ghrelin at a concentration equal to the EC80 (i.e. 3.7 nM). EC50, Hill slope and % Emax values are reported.
For antagonist testing, results for each concentration of test compound were expressed as percent inhibition relative to the signal induced by ghrelin at a concentration equal to the EC80.

[2] = target: T2, human ghrelin receptor (hGHS-R1a) (Homo sapiens, UniProt Q92847); experiment: Competitive radioligand binding assay (ghrelin receptor), [125I]-ghrelin, GHS-R/HEK 293 membranes; settings: competition with [125I]-ghrelin
T2 construct: purchased PerkinElmer BioSignal #RBHGHSM, lot#1887; host or cells: HEK-293 cells, stably transfected; membranes
Protocol: The competitive binding assay at the human growth hormone secretagogue receptor (HGHS-R1a) was carried out analogously to assays described in the literature. (Bednarek M A et al. Structure-function studies on the new growth hormone-releasing peptide ghrelin: minimal sequence of ghrelin necessary for activation of growth hormone secretagogue receptor 1a; J. Med. Chem. 2000, 43, 4370-4376; Palucki, B. L. et al. Spiro(indoline-3,4′-piperidine) growth hormone secretagogues as ghrelin mimetics; Bioorg. Med. Chem. Lett. […], 11, 1955-1957).
Membranes (GHS-R/HEK 293) were prepared from HEK-293 cells stably transfected with the human ghrelin receptor (hGHS-R1a). These membranes were provided by PerkinElmer BioSignal (#RBHGHSM, lot#1887) and utilized at a quantity of 0.71 μg/assay point. • 1. [^125]-Ghrelin (PerkinElmer, #NEX-388); final concentration: 0.0070-0.0085 nM • 2. […] Multiscreen Harvest plates-GF/C (Millipore, #MAHFC1H60) • 4. Deep-well polypropylene titer plate (Beckman Coulter, #267006) • 5. TopSeal-A (PerkinElmer, #6005185) • 6. Bottom seal (Millipore, #MATAH0P00) • 7. MicroScint-0 (PerkinElmer, #6013611) • 8. Binding Buffer: 25 mM Hepes (pH 7.4), 1 mM CaCl2, 5 mM MgCl2, 2.5 mM EDTA, 0.4% BSA
Competition experiments were performed in a 300 μl filtration assay format. • 1. 220 μL of membranes diluted in binding buffer • 2. 40 μL of compound diluted in binding buffer • 3.
Compounds were provided frozen on dry ice at a stock concentration of 10 mM diluted in 100% DMSO and stored at −80° C. until the day of testing. On the test day, compounds were allowed to thaw at rt overnight and then diluted in assay buffer according to the desired test concentrations. Under these conditions, the maximal final DMSO concentration in the assay was 0.1%.
In deep-well plates, 220 μL of diluted cell membranes (final concentration: 0.71 μg/well) were combined with 40 μL of either binding buffer (total binding, N=5), 1 μM ghrelin (non-specific binding, N=3) or the appropriate concentration of test compound N=2 for each test concentration). […] Plates were sealed with TopSeal-A, vortexed gently and incubated at rt for 30 min. The reaction was arrested by filtering samples through Multiscreen Harvest plates (pre-soaked in 0.5% polyethyleneimine) using a Tomtec Harvester, washed 9 times with 500 μL of cold 50 mM Tris-HCl (pH 7.4, 4° C.), and then plates were air-dried in a fumehood for 30 min. A bottom seal was applied to the plates prior to the addition of 25 μL of MicroScint-0 to each well. Plates were than sealed with TopSeal-A and counted for 30 sec per well on a TopCount Microplate Scintillation and Luminescence Counter (PerkinElmer) using a count delay of 60 sec. Results were expressed as counts per minute (cpm).
Data were analyzed by GraphPad Prism (GraphPad Software, San Diego, Calif.) using a variable slope non-linear regression analysis.
Dmax values were calculated using the following formula: […]
where total and non-specific binding represent the cpm obtained in the absence or presence of 1 μM ghrelin, respectively.

ghrelin receptor [3] = target: T1, ghrelin receptor; experiment: Inverse agonist assay, Example 4; format: cell-based; settings: inverse agonist activity
From the text: The inverse agonist activity at the ghrelin receptor for compounds of the invention can be determined using the methods described in Intl. Pat. Appl. Publ. No. WO 2004/056869 and Holst, B.; Cygankiewicz, A.; Halkjaer, T.; Ankersen, A.; Schwartz, T. W. High constitutive signaling of the ghrelin receptor—identification of a potent inverse agonist. Mol. Endocrinol. 2003, 17, 2201-2210.

T2 sequence (Q92847 whole entry): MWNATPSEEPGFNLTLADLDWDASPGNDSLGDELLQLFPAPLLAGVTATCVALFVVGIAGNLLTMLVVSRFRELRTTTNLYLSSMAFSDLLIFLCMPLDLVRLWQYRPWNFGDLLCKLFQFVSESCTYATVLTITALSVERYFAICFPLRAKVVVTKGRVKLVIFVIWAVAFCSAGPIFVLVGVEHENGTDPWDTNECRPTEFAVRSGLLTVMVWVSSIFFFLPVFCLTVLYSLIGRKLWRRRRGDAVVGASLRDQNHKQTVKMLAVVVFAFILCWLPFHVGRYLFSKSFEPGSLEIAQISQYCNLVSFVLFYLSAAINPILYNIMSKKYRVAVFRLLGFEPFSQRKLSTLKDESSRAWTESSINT
T1 sequence (Q92847 whole entry): as above

Row | Compound | receptor activation (agonist activity) (ghrelin receptor [1]; agonist testing, in comparison to known ghrelin agonists) | IC50 (ghrelin receptor [1]) | Ki [2] | IC50 (ghrelin receptor [3])
1 | CCC[C@@H]1NCCOc2ccccc2CCCNC(=O)[C@@H](Cc2ccccc2)NC(=O)[C@H](C)NC1=O [Compound 59] |  |  | 1000 to 10000 nM | 
2 | CCC[C@@H]1NCCOc2ccccc2CCCNC(=O)[C@@H](Cc2ccccc2)NC(=O)[C@@H](C)NC1=O [Compound 60] |  |  | 100 to 1000 nM | 
3 | CCC[C@@H]1NCCOc2ccccc2CCCNC(=O)[C@@H](Cc2ccccc2)NC(=O)[C@H](C)N(C)C1=O [Compound 79] |  |  | 100 to 1000 nM | 
4 | CC(C)C[C@@H]1NCCOc2ccccc2CCCNC(=O)[C@H](Cc2ccccc2)NC(=O)[C@H](C)NC1=O [Compound 93] |  |  | 1000 to 10000 nM | 
5 | CC(C)C[C@@H]1NCCOc2ccccc2CCCNC(=O)[C@H](Cc2ccccc2)NC(=O)[C@@H](C)NC1=O [Compound 94] |  |  | 1000 to 10000 nM | 
6 | CCC(C)[C@@H]1NCCOc2ccccc2CCCNC(=O)[C@@H](Cc2ccccc2)NC(=O)[C@@H](CO)NC1=O (stereo partly drawn) [Compound 151] |  |  | 1000 to 10000 nM | 
7 | CCC(C)[C@@H]1NCCOc2ccccc2CCCNC(=O)[C@@H](Cc2ccccc2)NC(=O)[C@@H](COC(C)(C)C)NC1=O (stereo partly drawn) [Compound 215] |  |  | 1000 to 10000 nM | 
8 | CCC(C)[C@@H]1NCCOc2ccccc2CCCNC(=O)[C@@H](Cc2ccc(F)cc2)NC(=O)[C@@H](COCc2ccccc2)N(C)C1=O (stereo partly drawn) [Compound 501] |  |  | 100 to 1000 nM | 
9 | CC(O)[C@H]1C(=O)N[C@H](Cc2ccc(F)cc2)C(=O)NCCCc2ccccc2O[C@H](C)CN[C@@H](C2CC2)C(=O)N1C (stereo partly drawn) [Compound 505] |  | 100 to 1500 nM | 100 to 1000 nM | 100 to 1000 nM
10 | CCC(C)[C@@H]1NCCOc2ccccc2CCCNC(=O)[C@@H](Cc2ccccc2)NC(=O)[C@H](CCO)N(C)C1=O (stereo partly drawn) [Compound 506] |  | 100 to 1500 nM | 100 to 1000 nM | > 10000 nM
11 | CC[C@@H](C)[C@H]1NCCOc2ccccc2CCCNC(=O)[C@@H](Cc2ccccc2)NC(=O)[C@H]([C@H](C)O)N(C)C1=O [Compound 509] |  | > 1500 nM | 100 to 1000 nM | 

Now from value to compound:

Row | receptor activation (agonist activity) (ghrelin receptor [1]; agonist testing, in comparison to known ghrelin agonists) | IC50 (ghrelin receptor [1]) | Ki [2] | IC50 (ghrelin receptor [3]) | Compound
12 | no receptor activation | 100 to 1500 nM | 100 to 1000 nM | > 10000 nM | CCC(C)[C@@H]1NCCOc2ccccc2CCCNC(=O)[C@@H](Cc2ccccc2)NC(=O)[C@@H](CO)N(C)C1=O (stereo in doubt) [Compound 152]
13 |  |  | 100 to 1000 nM |  | CCC(C)[C@@H]1NCCOc2ccccc2CCCNC(=O)[C@@H](Cc2ccccc2)NC(=O)[C@@H](C)NC1=O (stereo partly drawn) [Compound 2]
14 |  |  | 100 to 1000 nM |  | CCC(C)[C@@H]1NCCOc2ccccc2/C=C/CNC(=O)[C@H](Cc2ccccc2)NC(=O)[C@@H](C)NC1=O (stereo partly drawn) [Compound 14]
15 |  | 1 to 100 nM | 1 to 100 nM | 100 to 1000 nM | CCC(C)[C@@H]1NCCOc2ccccc2CCCNC(=O)[C@@H](Cc2ccccc2)NC(=O)[C@H](C(C)O)N(C)C1=O (stereo partly drawn) [Compound 503]
16 |  | 1 to 100 nM | 1 to 100 nM | 100 to 1000 nM | CCC(C)[C@@H]1NCCOc2ccccc2/C=C/CNC(=O)[C@@H](Cc2ccc(F)cc2)NC(=O)[C@H](C(C)O)N(C)C1=O (stereo partly drawn) [Compound 504]
17 |  | 100 to 1500 nM | 1 to 100 nM |  | CCC(C)[C@@H]1NCCOc2ccccc2/C=C\CNC(=O)[C@@H](Cc2ccc(F)cc2)NC(=O)[C@H](C(C)O)N(C)C1=O (stereo partly drawn) [Compound 508]
